Reference: ChEMBL document CHEMBL5108067, “Discovery of Potent OTUB1/USP8 Dual Inhibitors Targeting Proteostasis in Non-Small-Cell Lung Cancer” (J Med Chem, 2022)

Molecular target: T1, Ubiquitin carboxyl-terminal hydrolase 8 (Homo sapiens) (UniProt P40818)
T1 sequence (whole entry): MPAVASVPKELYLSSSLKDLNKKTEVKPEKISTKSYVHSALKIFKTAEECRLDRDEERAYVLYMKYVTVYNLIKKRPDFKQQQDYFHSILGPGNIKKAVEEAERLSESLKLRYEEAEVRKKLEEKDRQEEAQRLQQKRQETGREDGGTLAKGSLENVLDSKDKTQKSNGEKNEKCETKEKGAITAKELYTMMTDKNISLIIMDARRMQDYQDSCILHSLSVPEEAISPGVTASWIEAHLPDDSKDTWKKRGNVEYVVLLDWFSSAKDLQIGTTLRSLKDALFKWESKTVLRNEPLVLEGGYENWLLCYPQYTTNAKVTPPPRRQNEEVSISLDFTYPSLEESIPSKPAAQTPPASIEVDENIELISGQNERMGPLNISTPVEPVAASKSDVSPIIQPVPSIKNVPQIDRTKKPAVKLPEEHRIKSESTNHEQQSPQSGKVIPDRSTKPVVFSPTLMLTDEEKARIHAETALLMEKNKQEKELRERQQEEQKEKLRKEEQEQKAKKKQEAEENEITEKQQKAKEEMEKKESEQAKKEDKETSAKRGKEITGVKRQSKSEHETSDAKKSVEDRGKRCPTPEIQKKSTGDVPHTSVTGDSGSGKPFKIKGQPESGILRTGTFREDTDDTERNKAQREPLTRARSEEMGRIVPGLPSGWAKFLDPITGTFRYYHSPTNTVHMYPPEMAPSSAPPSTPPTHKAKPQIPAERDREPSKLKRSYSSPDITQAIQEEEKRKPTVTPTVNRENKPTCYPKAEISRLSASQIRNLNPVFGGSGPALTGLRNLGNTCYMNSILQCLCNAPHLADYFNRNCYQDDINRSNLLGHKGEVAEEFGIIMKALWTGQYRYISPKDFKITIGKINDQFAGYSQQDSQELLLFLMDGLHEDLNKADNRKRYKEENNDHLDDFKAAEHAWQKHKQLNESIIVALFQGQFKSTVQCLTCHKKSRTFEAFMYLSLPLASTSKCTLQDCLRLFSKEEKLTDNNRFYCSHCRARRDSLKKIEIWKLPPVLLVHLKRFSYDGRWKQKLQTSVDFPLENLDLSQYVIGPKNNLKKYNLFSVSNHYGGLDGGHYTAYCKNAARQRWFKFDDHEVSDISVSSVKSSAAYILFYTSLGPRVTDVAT
Assay: Inhibition of N-terminal His-6 tagged USP8 (734 to 1110 residues) (unknown origin) expressed in Escherichia coli BL21 (DE3) cells at 10 nM measured after 3 hrs by fluorescence based Plate reader method relative to control
Conditions: values are per cent of control

residual activity [%]	SMILES
54.4	O=C1c2ccccc2C(=O)c2oc(-c3cccc(C(F)(F)F)c3)nc21
52.4	O=C1c2ccccc2C(=O)c2oc(-c3c(F)ccc(F)c3Cl)nc21
57.9	COc1cc(-c2nc3c(o2)C(=O)c2ccccc2C3=O)ccc1C
41.5	COc1ccc(F)c(-c2nc3c(o2)C(=O)c2ccccc2C3=O)c1Cl
62.9	O=C1c2ccccc2C(=O)c2oc(-c3c(F)cccc3Cl)nc21
59.1	O=C1c2ccccc2C(=O)c2oc(-c3cccc(F)c3)nc21
58.9	CN1CC[C@@H](Oc2ccc(-c3nc4c(o3)C(=O)c3ccccc3C4=O)c(Cl)c2)C1
50.7	O=C1c2ccccc2C(=O)c2oc(-c3ccccc3C(F)(F)F)nc21
56.9	COc1c(Cl)ccc(Cl)c1-c1nc2c(o1)C(=O)c1ccccc1C2=O
37.8	O=C1c2ccccc2C(=O)c2oc(-c3ccc(C(F)(F)F)cc3)nc21
71.2	COc1cc(O[C@@H]2CCN(C)C2)cc(-c2nc3c(o2)C(=O)c2ccccc2C3=O)c1
74.1	COc1ccc(Cl)c(-c2nc3c(o2)C(=O)c2ccccc2C3=O)c1F
53.6	COc1cc(-c2nc3c(o2)C(=O)c2ccccc2C3=O)ccc1Cl
60.4	CN(C)CCOc1cccc(-c2nc3c(o2)C(=O)c2ccccc2C3=O)c1
52.7	COc1cccc(-c2nc3c(o2)C(=O)c2ccccc2C3=O)c1
58.4	O=C1c2ccccc2C(=O)c2oc(-c3ccc(Cl)cc3Cl)nc21
80	O=C1c2ccccc2C(=O)c2oc(-c3cccc(OCCN4CCOCC4)c3)nc21
44.6	O=C1c2ccccc2C(=O)c2oc(-c3c(Cl)cccc3Cl)nc21
60.2	CN1CC[C@H](Oc2cccc(-c3nc4c(o3)C(=O)c3ccccc3C4=O)c2)C1
38.9	N#Cc1ccc(-c2nc3c(o2)C(=O)c2ccccc2C3=O)cc1

Molecular target: T1, Ubiquitin carboxyl-terminal hydrolase 8 (Homo sapiens)
Assay: Inhibition of N-terminal His-6 tagged USP8 (734 to 1110 residues) (unknown origin) expressed in Escherichia coli BL21 (DE3) cells at 100 nM measured after 3 hrs by fluorescence based Plate reader method relative to control
Conditions: values are per cent of control

residual activity [%]	SMILES
21.6	O=C1c2ccccc2C(=O)c2oc(-c3cccc(C(F)(F)F)c3)nc21
28.4	O=C1c2ccccc2C(=O)c2oc(-c3c(F)ccc(F)c3Cl)nc21
56.7	COc1cc(-c2nc3c(o2)C(=O)c2ccccc2C3=O)ccc1C
23.6	COc1ccc(F)c(-c2nc3c(o2)C(=O)c2ccccc2C3=O)c1Cl
26.5	O=C1c2ccccc2C(=O)c2oc(-c3c(F)cccc3Cl)nc21
37.2	O=C1c2ccccc2C(=O)c2oc(-c3cccc(F)c3)nc21
34.7	CN1CC[C@@H](Oc2ccc(-c3nc4c(o3)C(=O)c3ccccc3C4=O)c(Cl)c2)C1
17.7	O=C1c2ccccc2C(=O)c2oc(-c3ccccc3C(F)(F)F)nc21
35.6	COc1c(Cl)ccc(Cl)c1-c1nc2c(o1)C(=O)c1ccccc1C2=O
18.2	O=C1c2ccccc2C(=O)c2oc(-c3ccc(C(F)(F)F)cc3)nc21
46.2	COc1cc(O[C@@H]2CCN(C)C2)cc(-c2nc3c(o2)C(=O)c2ccccc2C3=O)c1
20.4	COc1ccc(Cl)c(-c2nc3c(o2)C(=O)c2ccccc2C3=O)c1F
30	COc1cc(-c2nc3c(o2)C(=O)c2ccccc2C3=O)ccc1Cl
31.7	CN(C)CCOc1cccc(-c2nc3c(o2)C(=O)c2ccccc2C3=O)c1
32.9	COc1cccc(-c2nc3c(o2)C(=O)c2ccccc2C3=O)c1
16	O=C1c2ccccc2C(=O)c2oc(-c3ccc(Cl)cc3Cl)nc21
44.3	O=C1c2ccccc2C(=O)c2oc(-c3cccc(OCCN4CCOCC4)c3)nc21
24.9	O=C1c2ccccc2C(=O)c2oc(-c3c(Cl)cccc3Cl)nc21
29.8	CN1CC[C@H](Oc2cccc(-c3nc4c(o3)C(=O)c3ccccc3C4=O)c2)C1
20.8	N#Cc1ccc(-c2nc3c(o2)C(=O)c2ccccc2C3=O)cc1

Molecular target: T2, Ubiquitin thioesterase OTUB1 (Homo sapiens, UniProt Q96FW1)
Assay: Inhibition of N-terminal His-6 tagged OTUB1 (40 to 271 residues) (unknown origin) expressed in Escherichia coli BL21 (DE3) cells at 100 nM using Ub-Rho measured after 0.5 to 3 hrs by fluorescence based Plate reader method relative to control
Conditions: time 0.5-3 hrs, values are per cent of control

T2 sequence (Q96FW1 whole entry, the tested form may be a part): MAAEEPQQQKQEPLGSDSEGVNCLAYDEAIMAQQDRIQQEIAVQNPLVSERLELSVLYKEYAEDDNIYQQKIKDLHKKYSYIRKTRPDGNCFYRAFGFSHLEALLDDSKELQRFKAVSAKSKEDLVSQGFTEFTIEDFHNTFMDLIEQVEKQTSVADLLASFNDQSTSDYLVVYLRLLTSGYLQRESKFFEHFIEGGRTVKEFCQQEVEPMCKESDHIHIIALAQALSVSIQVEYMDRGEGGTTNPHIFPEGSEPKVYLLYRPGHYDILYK

residual activity [%]	SMILES
13.2	O=C1c2ccccc2C(=O)c2oc(-c3cccc(C(F)(F)F)c3)nc21
10.4	O=C1c2ccccc2C(=O)c2oc(-c3c(F)ccc(F)c3Cl)nc21
59.9	COc1cc(-c2nc3c(o2)C(=O)c2ccccc2C3=O)ccc1C
20.5	COc1ccc(F)c(-c2nc3c(o2)C(=O)c2ccccc2C3=O)c1Cl
9.6	O=C1c2ccccc2C(=O)c2oc(-c3c(F)cccc3Cl)nc21
26.3	O=C1c2ccccc2C(=O)c2oc(-c3cccc(F)c3)nc21
35.1	CN1CC[C@@H](Oc2ccc(-c3nc4c(o3)C(=O)c3ccccc3C4=O)c(Cl)c2)C1
25.8	O=C1c2ccccc2C(=O)c2oc(-c3ccccc3C(F)(F)F)nc21
42.4	COc1c(Cl)ccc(Cl)c1-c1nc2c(o1)C(=O)c1ccccc1C2=O
29	O=C1c2ccccc2C(=O)c2oc(-c3ccc(C(F)(F)F)cc3)nc21
44.2	COc1cc(O[C@@H]2CCN(C)C2)cc(-c2nc3c(o2)C(=O)c2ccccc2C3=O)c1
26.3	COc1ccc(Cl)c(-c2nc3c(o2)C(=O)c2ccccc2C3=O)c1F
40.4	COc1cc(-c2nc3c(o2)C(=O)c2ccccc2C3=O)ccc1Cl
28.7	CN(C)CCOc1cccc(-c2nc3c(o2)C(=O)c2ccccc2C3=O)c1
30.9	COc1cccc(-c2nc3c(o2)C(=O)c2ccccc2C3=O)c1
42.2	O=C1c2ccccc2C(=O)c2oc(-c3ccc(Cl)cc3Cl)nc21
47.2	O=C1c2ccccc2C(=O)c2oc(-c3cccc(OCCN4CCOCC4)c3)nc21
21	O=C1c2ccccc2C(=O)c2oc(-c3c(Cl)cccc3Cl)nc21
38.7	CN1CC[C@H](Oc2cccc(-c3nc4c(o3)C(=O)c3ccccc3C4=O)c2)C1
15.2	N#Cc1ccc(-c2nc3c(o2)C(=O)c2ccccc2C3=O)cc1

Molecular target: T2, Ubiquitin thioesterase OTUB1
Assay: Inhibition of N-terminal His-6 tagged OTUB1 (40 to 271 residues) (unknown origin) expressed in Escherichia coli BL21 (DE3) cells at 10 nM using Ub-Rho measured after 0.5 to 3 hrs by fluorescence based Plate reader method relative to control
Conditions: time 0.5-3 hrs, values are per cent of control

residual activity [%]	SMILES
23.1	O=C1c2ccccc2C(=O)c2oc(-c3cccc(C(F)(F)F)c3)nc21
23.3	O=C1c2ccccc2C(=O)c2oc(-c3c(F)ccc(F)c3Cl)nc21
70.8	COc1cc(-c2nc3c(o2)C(=O)c2ccccc2C3=O)ccc1C
23.3	COc1ccc(F)c(-c2nc3c(o2)C(=O)c2ccccc2C3=O)c1Cl
37.3	O=C1c2ccccc2C(=O)c2oc(-c3c(F)cccc3Cl)nc21
55.3	O=C1c2ccccc2C(=O)c2oc(-c3cccc(F)c3)nc21
70.9	CN1CC[C@@H](Oc2ccc(-c3nc4c(o3)C(=O)c3ccccc3C4=O)c(Cl)c2)C1
62.6	O=C1c2ccccc2C(=O)c2oc(-c3ccccc3C(F)(F)F)nc21
69.4	COc1c(Cl)ccc(Cl)c1-c1nc2c(o1)C(=O)c1ccccc1C2=O
60.3	O=C1c2ccccc2C(=O)c2oc(-c3ccc(C(F)(F)F)cc3)nc21
77.1	COc1cc(O[C@@H]2CCN(C)C2)cc(-c2nc3c(o2)C(=O)c2ccccc2C3=O)c1
48.7	COc1ccc(Cl)c(-c2nc3c(o2)C(=O)c2ccccc2C3=O)c1F
70.2	COc1cc(-c2nc3c(o2)C(=O)c2ccccc2C3=O)ccc1Cl
66.7	CN(C)CCOc1cccc(-c2nc3c(o2)C(=O)c2ccccc2C3=O)c1
61.7	COc1cccc(-c2nc3c(o2)C(=O)c2ccccc2C3=O)c1
62.4	O=C1c2ccccc2C(=O)c2oc(-c3ccc(Cl)cc3Cl)nc21
82.1	O=C1c2ccccc2C(=O)c2oc(-c3cccc(OCCN4CCOCC4)c3)nc21
52.4	O=C1c2ccccc2C(=O)c2oc(-c3c(Cl)cccc3Cl)nc21
75.6	CN1CC[C@H](Oc2cccc(-c3nc4c(o3)C(=O)c3ccccc3C4=O)c2)C1
46.4	N#Cc1ccc(-c2nc3c(o2)C(=O)c2ccccc2C3=O)cc1

Test system: not listed separately
Assay: Aqueous solubility of the compound measured after 24 hr by […] LC-MS/MS analysis
Assay type: physicochemical
Conditions: buffer

solubility	SMILES
Insoluble	O=C1c2ccccc2C(=O)c2oc(-c3cccc(C(F)(F)F)c3)nc21
Insoluble	O=C1c2ccccc2C(=O)c2oc(-c3c(F)ccc(F)c3Cl)nc21
Insoluble	O=C1c2ccccc2C(=O)c2oc(-c3c(F)cccc3Cl)nc21
Insoluble	N#Cc1ccc(-c2nc3c(o2)C(=O)c2ccccc2C3=O)cc1
